Reference: patent US10455835B2, “Fungicidal compositions for controlling leaf spots in sugar beets” (Dow AgroSciences LLC, priority 2012, dated 2019)

Test system: Cercospora beticola (CERCBE)
Experiment: Activity vs. sugar beet leaf spot on inoculated sugar beet plants (disease severity)
Format: in vivo
Settings: sugar beet 'HH88', factorial analysis across all rates and replicates
Protocol: Evaluation of Protectant Activity of Fungicide Mixtures vs. sugar beet leaf spot caused by Cercospora beticola (CERCBE). Sugar beet plants (variety ‘HH88’) were grown in soil-less Metro mix and trimmed regularly to maintain an uniform plant size prior to test. To prepare inoculum, dried diseased beet leaves were placed in a moist chamber overnight to promote sporulation. Spores were rinsed off leaves with distilled water, filtered through cheesecloth to remove plant debris, then adjusted to 4×10^4 spores/ml. Tween 20 was added at 3 drops per 100 ml. Sugar beet seedlings were inoculated 3 days prior to or 4 to 5 days after fungicide treatments. Inoculated plants were kept in a dew chamber at 22° C. for 48 hr then incubated in a greenhouse set at 24° C. under a clear plastic hood until disease symptoms were fully expressed. Disease severity was assessed on both treated and untreated plants.
The following fungicides were used for an efficacy example:
The efficacy of various formulations is shown in the table below wherein the values are percent disease severity. Results of the factorial analysis across all rates and replicates.

CC1COC(Cn2cncn2)(c2ccc(Oc3ccc(Cl)cc3)cc2Cl)O1 (centres unmarked) [difenconazole, 1H-1,2,4-Triazole, 1-((2-(2-chloro-4-(4-chlorophenoxy)phenyl)-4-methyl-1,3-dioxolan-2-yl)methyl)-]
percent disease severity (Ex. 1, 3DC (inoculated 3 days prior to fungicide treatment), untreated disease severity 23.0): 1.2 b percent
percent disease severity (Ex. 2, 5DP (inoculated 5 days after fungicide treatment), untreated disease severity 31.0): 2.2 b percent
percent disease severity (Ex. 3, 3DC (inoculated 3 days prior to fungicide treatment), untreated disease severity 48.0): 0.6 c percent
percent disease severity (Ex. 4, 4DP (inoculated 4 days after fungicide treatment), untreated disease severity 35.0): 2.5 b percent
percent disease severity (Ex. 5, 3DC (inoculated 3 days prior to fungicide treatment), untreated disease severity 26.0): 0.4 c percent
